According to patent EP3046573B1, “AMYLIN ANALOGUES” (Zealand Pharma A/S, priority 2013, dated 2015):
Where two headings read alike, the source gives them in different places. Numbered stars: 1 amine (or outer) side, 2 acyl side, 3 side chain; on linkers, the order of the positions; unused ones are H or OH. Bridge positions count the residues as written; N and C are the ends. Square brackets hold non-standard residues; d marks the D form. Peptide text beside a SMILES is read from it. * marks the point of attachment. C20 diacid = O=C(O)CCCCCCCCCCCCCCCCCCC(=O)*; γGlu = O=C(O)[C@H](CCC(=O)[*:2])N[*:1]; NMeI = CC[C@H](C)[C@H](NC)C(=O)O; Myristoyl = CCCCCCCCCCCCCC(=O)*; Sar = CNCC(=O)O

How the values were obtained:
[1] = target: T1, human calcitonin receptor (hCTR2) (Homo sapiens, UniProt P30988); test: hCTR2 assay: induction of cAMP (AlphaScreen cAMP Assay kit) in COS7 cells expressing hCTR2; type: cell-based
T1 construct: expressed in transfected cells
T1 sequence (P30988 25-474): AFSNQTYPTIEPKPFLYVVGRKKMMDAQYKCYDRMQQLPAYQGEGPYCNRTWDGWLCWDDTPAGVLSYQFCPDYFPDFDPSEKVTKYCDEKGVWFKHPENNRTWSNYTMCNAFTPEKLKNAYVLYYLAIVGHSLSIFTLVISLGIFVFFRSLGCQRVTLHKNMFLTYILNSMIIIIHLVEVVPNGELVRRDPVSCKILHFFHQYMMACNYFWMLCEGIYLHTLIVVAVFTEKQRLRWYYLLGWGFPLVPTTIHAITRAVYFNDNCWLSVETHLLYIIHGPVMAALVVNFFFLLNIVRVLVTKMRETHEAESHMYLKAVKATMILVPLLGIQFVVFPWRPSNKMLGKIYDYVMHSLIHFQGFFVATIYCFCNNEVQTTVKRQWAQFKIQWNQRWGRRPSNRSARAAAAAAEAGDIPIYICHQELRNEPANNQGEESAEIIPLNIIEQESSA
In short: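 Peptide-induced cAMP in hCTR2-expressing COS7 cells, 15 min at 37° C with phosphodiesterase inhibitor IBMX (100 µM), detected by AlphaScreen; potency from 4PL curves.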

[2] = Solubility assessment (turbidity absorbance at 325 nm); type: physicochemical; settings: stock 2 mg/ml diluted 1:1, ambient temperature (typically 25°C), n=1; for Solubility, Acetate buffer pH 4: 100 mM acetate buffer pH 4.0; for Solubility, Acetate buffer pH 5: 100 mM acetate buffer pH 5.0; for Solubility, Histidine buffer pH 6: 100 mM histidine buffer pH 6.0; for Solubility, Histidine buffer pH 7: 100 mM histidine buffer pH 7.0; for Solubility, Phosphate buffer pH 6: 100 mM phosphate buffer pH 6.0; for Solubility, Phosphate buffer pH 7: 100 mM phosphate buffer pH 7.0; for Solubility, Phosphate buffer pH 7.5: 100 mM phosphate buffer pH7.5
In short: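 Turbidity read as absorbance at 325 nm (also 280 nm), single samples at ambient temperature (typically 25°C); ≤ 0.02 units counts as ≥ 1 mg/ml soluble. Samples made by 1:1 dilution of a 2 mg/ml acidic stock into 100 mM acetate, histidine or phosphate buffers, pH 4.0–7.5.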

[3] = cAMP induction in COS7 cells expressing hCTR2, average of a minimum of 3 determinations, read-out: hCTR2 EC50

Compound | EC50 [1] [nM] | Solubility, Acetate buffer pH 4 [2] | Solubility, Acetate buffer pH 5 [2] | Solubility, Histidine buffer pH 6 [2] | Solubility, Histidine buffer pH 7 [2] | Solubility, Phosphate buffer pH 6 [2] | Solubility, Phosphate buffer pH 7 [2] | Solubility, Phosphate buffer pH 7.5 [2] | EC50 [1, 3] [nM]
CC[C@H](C)[C@@H](C(=O)N[C@@H](CO)C(=O)N[C@@H](CO)C(=O)N[C@H](C(=O)N[C@@H](CC(N)=O)C(=O)N[C@H](C(=O)NCC(=O)N[C@@H](CO)C(=O)N[C@@H](CC(N)=O)C(=O)N[C@H](C(=O)N1CCC[C@H]1C(N)=O)[C@@H](C)O)C(C)C)[C@@H](C)O)N(C)C(=O)[C@H](C)NC(=O)CN(C)C(=O)[C@H](Cc1ccccc1)NC(=O)[C@H](CC(N)=O)NC(=O)[C@H](CC(N)=O)NC(=O)[C@H](CO)NC(=O)[C@H](CO)NC(=O)[C@H](Cc1c[nH]cn1)NC(=O)[C@H](Cc1c[nH]cn1)NC(=O)[C@H](CC(C)C)NC(=O)[C@H](Cc1ccccc1)NC(=O)[C@H](CCC(=O)O)NC(=O)[C@H](C)NC(=O)[C@H](CC(C)C)NC(=O)[C@H](CCCNC(=N)N)NC(=O)[C@H](CCC(N)=O)NC(=O)[C@@H](NC(=O)[C@H](C)NC(=O)[C@@H]1CSSC[C@H](NC(=O)[C@H](CCCNC(=N)N)NC(=O)CC[C@H](NC(=O)CCCCCCCCCCCCCCCCCCC(=O)O)C(=O)O)C(=O)N[C@@H](CC(N)=O)C(=O)N[C@@H]([C@@H](C)O)C(=O)N[C@@H](C)C(=O)N[C@@H]([C@@H](C)O)C(=O)N1)[C@@H](C)O [Compound 54, [19CD]-isoGlu-RC()NTATC()ATQRLAEFLHHSSNNF-Gly(Me)-A-Ile(Me)-SSTNVGSNTP-NH2] ({C20 diacid-γGlu}-RCNTATCATQRLAEFLHHSSNNF[Sar]A[NMeI]SSTNVGSNTP-NH2; disulfide 2-7) | 0.091 | SS (SS indicates solubility ≥ 1mg/ml) | SS (SS indicates solubility ≥ 1mg/ml) | SS (SS indicates solubility ≥ 1mg/ml) | SS (SS indicates solubility ≥ 1mg/ml) | SS (SS indicates solubility ≥ 1mg/ml) | SS (SS indicates solubility ≥ 1mg/ml) | SS (SS indicates solubility ≥ 1mg/ml) | –
CC[C@H](C)[C@@H](C(=O)N[C@@H](CC(C)C)C(=O)N[C@@H](CO)C(=O)N[C@@H](CO)C(=O)N[C@H](C(=O)N[C@@H](CC(N)=O)C(=O)N[C@H](C(=O)NCC(=O)N[C@@H](CO)C(=O)N[C@@H](CC(N)=O)C(=O)N[C@H](C(=O)N1CCC[C@H]1C(N)=O)[C@@H](C)O)C(C)C)[C@@H](C)O)N(C)C(=O)[C@H](C)NC(=O)CN(C)C(=O)[C@H](Cc1ccccc1)NC(=O)[C@H](CC(N)=O)NC(=O)[C@H](CO)NC(=O)[C@H](CO)NC(=O)[C@H](Cc1c[nH]cn1)NC(=O)[C@H](Cc1c[nH]cn1)NC(=O)[C@H](CC(C)C)NC(=O)[C@H](Cc1ccccc1)NC(=O)[C@H](CCC(=O)O)NC(=O)[C@H](C)NC(=O)[C@H](CC(C)C)NC(=O)[C@H](CCCNC(=N)N)NC(=O)[C@H](CCC(N)=O)NC(=O)[C@@H](NC(=O)[C@H](C)NC(=O)[C@@H]1CSSC[C@H](NC(=O)[C@H](CCCNC(=N)N)NC(=O)CC[C@H](NC(=O)CCCCCCCCCCCCCCCCCCC(=O)O)C(=O)O)C(=O)N[C@@H](CC(N)=O)C(=O)N[C@@H]([C@@H](C)O)C(=O)N[C@@H](C)C(=O)N[C@@H]([C@@H](C)O)C(=O)N1)[C@@H](C)O [Compound 44, [19CD]-isoGlu-RC()NTATC()ATQRLAEFLHHSSNF-Gly(Me)-A-Ile(Me)-LSSTNVGSNTP-NH2] ({C20 diacid-γGlu}-RCNTATCATQRLAEFLHHSSNF[Sar]A[NMeI]LSSTNVGSNTP-NH2; disulfide 2-7) | – | SS (SS indicates solubility ≥ 1mg/ml) | II (II indicates solubility ≤ 1 mg/ml) | II (II indicates solubility ≤ 1 mg/ml) | SS (SS indicates solubility ≥ 1mg/ml) | SS (SS indicates solubility ≥ 1mg/ml) | SS (SS indicates solubility ≥ 1mg/ml) | SS (SS indicates solubility ≥ 1mg/ml) | 0.15
CC[C@H](C)[C@@H](C(=O)N[C@@H](CC(C)C)C(=O)N[C@@H](CO)C(=O)N[C@@H](CO)C(=O)N[C@H](C(=O)N[C@@H](CCC(=O)O)C(=O)N[C@H](C(=O)NCC(=O)N[C@@H](CO)C(=O)N[C@@H](CC(=O)O)C(=O)N[C@H](C(=O)N1CCC[C@H]1C(N)=O)[C@@H](C)O)C(C)C)[C@@H](C)O)N(C)C(=O)[C@H](C)NC(=O)CN(C)C(=O)[C@H](Cc1ccccc1)NC(=O)[C@H](CO)NC(=O)[C@H](CO)NC(=O)[C@H](CCCNC(=N)N)NC(=O)[C@H](Cc1c[nH]cn1)NC(=O)[C@H](CC(C)C)NC(=O)[C@H](Cc1ccccc1)NC(=O)[C@H](CCC(=O)O)NC(=O)[C@H](C)NC(=O)[C@H](CC(C)C)NC(=O)[C@H](CCCNC(=N)N)NC(=O)[C@H](CCC(N)=O)NC(=O)[C@@H](NC(=O)[C@H](C)NC(=O)[C@@H]1CSSC[C@H](NC(=O)[C@H](CCCNC(=N)N)NC(=O)CC[C@H](NC(=O)CCCCCCCCCCCCCCCCCCC(=O)O)C(=O)O)C(=O)N[C@@H](CC(N)=O)C(=O)N[C@@H]([C@@H](C)O)C(=O)N[C@@H](C)C(=O)N[C@@H]([C@@H](C)O)C(=O)N1)[C@@H](C)O [Compound 78, [19CD]-isoGlu-RC()NTATC()ATQRLAEFLHRSSF-Gly(Me)-A-Ile(Me)-LSSTEVGSDTP-NH2] ({C20 diacid-γGlu}-RCNTATCATQRLAEFLHRSSF[Sar]A[NMeI]LSSTEVGSDTP-NH2; disulfide 2-7) | – | SS (SS indicates solubility ≥ 1mg/ml) | SS (SS indicates solubility ≥ 1mg/ml) | SS (SS indicates solubility ≥ 1mg/ml) | SS (SS indicates solubility ≥ 1mg/ml) | SS (SS indicates solubility ≥ 1mg/ml) | SS (SS indicates solubility ≥ 1mg/ml) | SS (SS indicates solubility ≥ 1mg/ml) | 0.07
CCCCCCCCCCCCCC(=O)N[C@@H](CCC(=O)N[C@@H](CCCNC(=N)N)C(=O)N[C@H]1CSSC[C@@H](C(=O)N[C@@H](C)C(=O)N[C@H](C(=O)N[C@@H](CCC(N)=O)C(=O)N[C@@H](CCCNC(=N)N)C(=O)N[C@@H](CC(C)C)C(=O)N[C@@H](C)C(=O)N[C@@H](CCC(=O)O)C(=O)N[C@@H](Cc2ccccc2)C(=O)N[C@@H](CC(C)C)C(=O)N[C@@H](Cc2c[nH]cn2)C(=O)N[C@@H](CCCNC(=N)N)C(=O)N[C@@H](CO)C(=O)N[C@@H](CO)C(=O)N[C@@H](CC(N)=O)C(=O)N[C@@H](CC(N)=O)C(=O)N[C@@H](Cc2ccccc2)C(=O)N(C)CC(=O)N[C@@H](C)C(=O)N(C)[C@H](C(=O)N[C@@H](CC(C)C)C(=O)N[C@@H](CO)C(=O)N[C@@H](CO)C(=O)N[C@H](C(=O)N[C@@H](CC(N)=O)C(=O)N[C@H](C(=O)NCC(=O)N[C@@H](CO)C(=O)N[C@@H](CC(N)=O)C(=O)N[C@H](C(=O)N2CCC[C@H]2C(N)=O)[C@@H](C)O)C(C)C)[C@@H](C)O)[C@@H](C)CC)[C@@H](C)O)NC(=O)[C@H]([C@@H](C)O)NC(=O)[C@H](C)NC(=O)[C@H]([C@@H](C)O)NC(=O)[C@H](CC(N)=O)NC1=O)C(=O)O [Compound 91, [Tetradecanoyl]-isoGlu-RC()NTATC()ATQRLAEFLHRSSNNF-Gly(Me)-A-Ile(Me)-LSSTNVGSNTP-NH2] ({Myristoyl-γGlu}-RCNTATCATQRLAEFLHRSSNNF[Sar]A[NMeI]LSSTNVGSNTP-NH2; disulfide 2-7) | 0.047 | SS (SS indicates solubility ≥ 1mg/ml) | SS (SS indicates solubility ≥ 1mg/ml) | SS (SS indicates solubility ≥ 1mg/ml) | SS (SS indicates solubility ≥ 1mg/ml) | SS (SS indicates solubility ≥ 1mg/ml) | SS (SS indicates solubility ≥ 1mg/ml) | SS (SS indicates solubility ≥ 1mg/ml) | –
